Laboratory results from ChEMBL document CHEMBL3758179, “Baicalin Alleviates Silica-Induced Lung Inflammation and Fibrosis by Inhibiting the Th17 Response in C57BL/6 Mice” (2015).
Activity calls are given as the source filed them. The rule behind the calls is not given here.

How the values were obtained:
[1] = system: Mus musculus; assay: Inhibition of Th17 response in spleen in silica-induced C57BL/6 mouse lung inflammation and fibrosis model assessed as decrease in level of CD4+T cells coexpressing IL-17A at 2 mg, ip administered every day measured on day 28 by flow cytometric analysis (reference value: 0.68 +/- 0.07%); assay type: functional, CD4+T cell
[2] = system: Mus musculus; assay: Induction of Treg response in silica-induced C57BL/6 mouse lung inflammation and fibrosis model assessed as increase in level of CD4+T cells coexpressing Foxp3 in spleen at 2 mg, ip administered every day measured on day 28 by flow cytometric analysis (reference value: 10.88 +/- 0.55 %); assay type: functional, CD4+T cell
[3] = system: Mus musculus; assay: Induction of Treg response in silica-induced C57BL/6 mouse lung inflammation and fibrosis model assessed as increase in level of CD4+T cells coexpressing Foxp3 in hilar lymph node at 2 mg, ip administered every day measured on day 56 by flow cytometric analysis (reference value: 8.76 +/- 0.23%); assay type: functional, CD4+T cell
[4] = system: Mus musculus; assay: Inhibition of Th2 response in silica-induced C57BL/6 mouse lung inflammation and fibrosis model assessed as decrease in GATA-3 mRNA expression in lung at 2 mg, ip administered every day measured on day 7, 56 by real time RT-PCR method relative to silica-treated control; assay type: functional, organism-based
[5] = system: Mus musculus; assay: Inhibition of Th17 response in silica-induced C57BL/6 mouse lung inflammation and fibrosis model assessed as decrease in RORgammat mRNA expression in spleen at 2 mg, ip administered every day measured on day 7, 28, 56 by real time RT-PCR method relative to silica-treated control; assay type: functional, organism-based
[6] = system: Mus musculus; assay: Induction of Treg response in silica-induced C57BL/6 mouse lung inflammation and fibrosis model assessed as increase in TGF-beta mRNA expression at 2 mg, ip administered every day measured on day 7 by real time RT-PCR method relative to silica-treated control; assay type: functional, organism-based
[7] = system: Mus musculus; assay: Inhibition of Th17 cell differentiation in silica-induced C57BL/6 mouse lung inflammation and fibrosis model assessed as decrease in IL-6 mRNA expression in lung at 2 mg, ip administered every day measured on day 28, 56 by real time RT-PCR method relative to silica-treated control; assay type: functional, organism-based
[8] = system: Mus musculus; assay: (§1) Inhibition of Th2 response in silica-induced C57BL/6 mouse lung inflammation and fibrosis model assessed as decrease in IL-4 level in bronchoalveolar lavage fluid at 2 mg, ip administered every day measured on day 7, 28, 56 by cytometric bead array method relative to silica-treated control; assay type: functional, organism-based
[9] = system: Mus musculus; assay: Induction of Treg response in silica-induced C57BL/6 mouse lung inflammation and fibrosis model assessed as increase in IL-10 mRNA expression in lung at 2 mg, ip administered every day measured on day 7, 28 by real time RT-PCR method relative to silica-treated control; assay type: functional, organism-based
[10] = system: Mus musculus; assay: Antiinflammatory activity in C57BL/6 mouse silicosis model assessed as reduction in silica-induced accumulation of neutrophils in bronchoalveolar lavage fluid at 2 mg, ip administered every day measured on day 7 by Giemsa staining method; assay type: functional, organism-based
[11] = system: Mus musculus; assay: Inhibition of Th1 response in silica-induced C57BL/6 mouse lung inflammation and fibrosis model assessed as decrease in TNFalpha mRNA expression in bronchoalveolar lavage fluid at 2 mg, ip administered every day measured on day 7 by real time RT-PCR method; assay type: functional, organism-based
[12] = system: Mus musculus; assay: Induction of Treg response in silica-induced C57BL/6 mouse lung inflammation and fibrosis model assessed as increase in level of CD4+T cells coexpressing Foxp3 in hilar lymph node at 2 mg, ip administered every day measured on day 7 by flow cytometric analysis (reference value: 12.14 +/- 0.53%); assay type: functional, CD4+T cell
[13] = system: Mus musculus; assay: Induction of Treg response in silica-induced C57BL/6 mouse lung inflammation and fibrosis model assessed as increase in level of CD4+T cells coexpressing Foxp3 in spleen at 2 mg, ip administered every day measured on day 56 by flow cytometric analysis (reference value: 10 +/- 0.53 %); assay type: functional, CD4+T cell
[14] = system: Mus musculus; assay: Inhibition of Th17 response in spleen in silica-induced C57BL/6 mouse lung inflammation and fibrosis model assessed as decrease in level of CD4+T cells coexpressing IL-17A at 2 mg, ip administered every day measured on day 7 by flow cytometric analysis (reference value: 0.9 +/- 0.11%); assay type: functional, CD4+T cell
[15] = system: Mus musculus; assay: Antiinflammatory activity in C57BL/6 mouse silicosis model assessed as reduction in silica-induced accumulation of total cells in bronchoalveolar lavage fluid at 2 mg, ip administered every day measured on day 7,28 and 56 by Giemsa staining method; assay type: functional, organism-based
[16] = system: Mus musculus; assay: Antiinflammatory activity in C57BL/6 mouse silicosis model assessed as reduction in inflammatory cell infiltration at 2 mg, ip administered every day measured on day 7,28 and 56 by haematoxylin and eosin staining-based light microscopic analysis relative to silica-treated control; assay type: functional, organism-based
[17] = system: Mus musculus; assay: Inhibition of Th17 response in silica-induced C57BL/6 mouse lung inflammation and fibrosis model assessed as decrease in IL-17A mRNA expression in lung at 2 mg, ip administered every day measured on day 7 by real time RT-PCR method relative to silica-treated control; assay type: functional, organism-based
[18] = system: Mus musculus; assay: Inhibition of Th17 cell differentiation in silica-induced C57BL/6 mouse lung inflammation and fibrosis model assessed as increase in IL-23 mRNA expression in lung at 2 mg, ip administered every day measured on day 7 by real time RT-PCR method relative to silica-treated control; assay type: functional, organism-based
[19] = system: Mus musculus; assay: Inhibition of Th1 response in silica-induced C57BL/6 mouse lung inflammation and fibrosis model assessed as decrease in IFN-gamma mRNA expression in lung at 2 mg, ip administered every day measured on day 7 by real time RT-PCR method relative to silica-treated control; assay type: functional, organism-based
[20] = system: Mus musculus; assay: Induction of Treg response in silica-induced C57BL/6 mouse lung inflammation and fibrosis model assessed as increase in level of CD4+T cells coexpressing Foxp3 in hilar lymph node at 2 mg, ip administered every day measured on day 28 by flow cytometric analysis (reference value: 8.18 +/- 0.61%); assay type: functional, CD4+T cell
[21] = system: Mus musculus; assay: Inhibition of Th17 cell differentiation in silica-induced C57BL/6 mouse lung inflammation and fibrosis model assessed as increase in IL-23 mRNA expression in lung at 2 mg, ip administered every day measured on day 28, 56 by real time RT-PCR method relative to silica-treated control; assay type: functional, organism-based
[22] = system: Mus musculus; assay: as §1, with “Th17 cell differentiation” for “Th2 response”, “IL-6 protein” for “IL-4”, “7” for “7, 28, 56”; assay type: functional, organism-based
[23] = system: Mus musculus; assay: Inhibition of Th17 cell differentiation in silica-induced C57BL/6 mouse lung inflammation and fibrosis model assessed as decrease in IL-6 protein level in bronchoalveolar lavage fluid at 2 mg, ip administered every day measured on day 28 to 56 by cytometric bead array method; assay type: functional, organism-based
[24] = system: Mus musculus; assay: Inhibition of Th17 response in spleen in silica-induced C57BL/6 mouse lung inflammation and fibrosis model assessed as decrease in level of CD4+T cells coexpressing IL-17A at 2 mg, ip administered every day measured on day 56 by flow cytometric analysis (reference value: 0.6 +/- 0.03%); assay type: functional, CD4+T cell
[25] = system: Mus musculus; assay: Inhibition of Th17 cell differentiation in silica-induced C57BL/6 mouse lung inflammation and fibrosis model assessed as decrease in IL-6 mRNA expression in lung at 2 mg, ip administered every day measured on day 7 by real time RT-PCR method relative to silica-treated control; assay type: functional, organism-based
[26] = system: Mus musculus; assay: Induction of Treg response in silica-induced C57BL/6 mouse lung inflammation and fibrosis model assessed as increase in Foxp3 mRNA expression in lung at 2 mg, ip administered every day measured on day 28, 56 by real time RT-PCR method relative to silica-treated control; assay type: functional, organism-based
[27] = system: Mus musculus; assay: Antiinflammatory activity in C57BL/6 mouse silicosis model assessed as silica-induced accumulation of macrophages in bronchoalveolar lavage fluid at 2 mg, ip administered every day measured on day 7,28 and 56 by Giemsa staining method; assay type: functional, organism-based
[28] = system: Mus musculus; assay: Inhibition of Th1 response in silica-induced C57BL/6 mouse lung inflammation and fibrosis model assessed as decrease in IFN-gamma mRNA expression in spleen at 2 mg, ip administered every day measured on day 7, 28 by real time RT-PCR method relative to silica-treated control; assay type: functional, organism-based
[29] = system: Mus musculus; assay: Inhibition of Th17 response in hilar lymph node in silica-induced C57BL/6 mouse lung inflammation and fibrosis model assessed as decrease in level of CD4+T cells coexpressing IL-17A at 2 mg, ip administered every day measured on day 28 by flow cytometric analysis (reference value: 0.76 +/- 0.07%); assay type: functional, CD4+T cell
[30] = system: Mus musculus; assay: Inhibition of Th17 response in hilar lymph node in silica-induced C57BL/6 mouse lung inflammation and fibrosis model assessed as decrease in level of CD4+T cells coexpressing IL-17A at 2 mg, ip administered every day measured on day 7 by flow cytometric analysis (reference value: 1.08 +/- 0.07%); assay type: functional, CD4+T cell
[31] = system: Mus musculus; assay: Inhibition of silica-induced lung fibrosis in C57BL/6 mouse silicosis model at 2 mg, ip administered every day measured on day 28 to 56 by Masson staining-based light microscopic analysis; assay type: functional, organism-based
[32] = system: Mus musculus; assay: Induction of Treg response in silica-induced C57BL/6 mouse lung inflammation and fibrosis model assessed as increase in level of CD4+T cells coexpressing Foxp3 in spleen at 2 mg, ip administered every day measured on day 7 by flow cytometric analysis (reference value: 11.75 +/- 1.03%); assay type: functional, CD4+T cell
[33] = system: Mus musculus; assay: Antiinflammatory activity in C57BL/6 mouse silicosis model assessed as silica-induced accumulation of lymphocytes in bronchoalveolar lavage fluid at 2 mg, ip administered every day measured on day 7,28 and 56 by Giemsa staining method; assay type: functional, organism-based
[34] = system: Mus musculus; assay: Antiinflammatory activity in C57BL/6 mouse silicosis model assessed as reduction in alveolar wall change at 2 mg, ip administered every day measured on day 7,28 and 56 by haematoxylin and eosin staining-based light microscopic analysis relative to silica-treated control; assay type: functional, organism-based
[35] = system: Mus musculus; assay: Inhibition of Th1 response in silica-induced C57BL/6 mouse lung inflammation and fibrosis model assessed as decrease in level of CD4+T cells coexpressing IFNgamma at 2 mg, ip administered every day measured on day 7 by flow cytometric analysis; assay type: functional, organism-based; conditions: CD4+T cell
[36] = system: Mus musculus; assay: Induction of Treg response in silica-induced C57BL/6 mouse lung inflammation and fibrosis model assessed as increase in Foxp3 mRNA expression in spleen at 2 mg, ip administered every day measured on day 7, 28 by real time RT-PCR method relative to silica-treated control; assay type: functional, organism-based

With `O=C(O)[C@H]1O[C@@H](Oc2cc3oc(-c4ccccc4)cc(=O)c3c(O)c2O)[C@H](O)[C@@H](O)[C@@H]1O` [BAICALIN] the “IL-17A+ CD4+ T cells” value [1] was 0.42%, the Activity [2] was 14.34% and the Activity [3] was 10.3%. For the same compound, the inhibition [4] was “Active”, the inhibition [5] was “Active” and the Activity [6] was “Active”. The inhibition [7] was “inactive”, the inhibition [8] was “Active” and the Activity [9] was “Active”. The Activity [10] was “Active”, the inhibition [11] was “Active” and the Activity [12] was 15.92%. The Activity [13] was 11.76%, the “IL-17A+ CD4+ T cells” value [14] was 0.42% and the Activity [15] was “Active”. The Activity [16] was “Active”, the inhibition [17] was “Active” and the inhibition [18] was “inactive”. The inhibition [19] was “Active”, the Activity [20] was 13.72% and the inhibition [21] was “Active”. The inhibition [22] was “Active”, the inhibition [23] was “inactive” and the “IL-17A+ CD4+ T cells” value [24] was 0.4%. The inhibition [25] was “Active”, the Activity [26] was “Active” and the Activity [27] was “inactive”. The inhibition [28] was “Active”, the “IL-17A+ CD4+ T cells” value [29] was 0.5% and the “IL-17A+ CD4+ T cells” value [30] was 0.46%. The inhibition [31] was “Active”, the Activity [32] was 17.4% and the Activity [33] was “Active”. The Activity [34] was “Active”, the inhibition [35] was “Active” and the Activity [36] was “Active”.
